From ChEMBL document CHEMBL5303304, “EUbOPEN Chemogenomics Library - IncuCyte” (2023)

Experiments:
Assay type in all cases: toxicity, cell-based
[1] = system: Fibroblast; assay: Incucyte cell viability with human fibroblast; conditions: 10 µM, compound concentration 10 uM
[2] = system: U2OS; assay: Incucyte cell viability with U2OS; conditions: human, 10 µM, compound concentration 10 uM
[3] = system: HEK-293T; assay: Incucyte cell viability with HEK293T; conditions: human, 10 µM, compound concentration 10 uM
Note: unitless GR value; below 1 slowed growth and below 0 cell loss.

Row | SMILES | Growth Rate ([1]; 0 h, replicate number 1) | Growth Rate ([1]; 18 h, replicate number 1) | Growth Rate ([1]; 24 h, replicate number 1) | Growth Rate ([2]; 6 h, replicate number 1) | Growth Rate ([2]; 6 h, replicate number 2) | Growth Rate ([2]; 12 h, replicate number 1) | Growth Rate ([2]; 12 h, replicate number 2) | Growth Rate ([2]; 18 h, replicate number 1) | Growth Rate ([2]; 24 h, replicate number 1) | Growth Rate ([2]; 24 h, replicate number 2) | Growth Rate ([3]; 6 h, replicate number 2) | Growth Rate ([3]; 12 h, replicate number 2) | Growth Rate ([3]; 18 h, replicate number 1) | Growth Rate ([3]; 18 h, replicate number 2) | Growth Rate ([3]; 24 h, replicate number 1) | Growth Rate ([3]; 24 h, replicate number 2) | Growth Rate ([1]; 0 h, replicate number 2) | Growth Rate ([1]; 18 h, replicate number 2) | Growth Rate ([2]; 0 h, replicate number 1) | Growth Rate ([2]; 18 h, replicate number 2) | also measured
1 | Cn1c(C2(NC(=O)c3ccc4c(C5CCCC5)c(-c5ncc(Br)cn5)n(C)c4c3)CCC2)nc2ccc(/C=C/C(=O)O)cc21 [DELEOBUVIR] | -1 | 0.98 | 0.85 | 0.31 | 0.75 | 0.44 | 0.92 | 0.49 | 0.7 | 0.88 | 0.72 | 0.88 | 0.92 | 0.88 | 0.91 | 0.85 | – | – | – | – | –
2 | [2H]C([2H])([2H])NC(=O)c1nnc(NC(=O)C2CC2)cc1Nc1cccc(-c2ncn(C)n2)c1OC [DEUCRAVACITINIB] | 0.51 | – | – | 0.29 | 0.63 | 0.68 | 0.76 | 0.89 | 0.97 | 0.74 | 0.51 | 0.56 | 0.78 | 0.68 | 0.85 | 0.76 | 0 | 0.85 | 0.39 | 0.71 | Growth Rate ([1]; 24 h, replicate number 2): 0.9; Growth Rate ([3]; 0 h, replicate number 2): 0.09; Growth Rate ([3]; 6 h, replicate number 1): 0.66; Growth Rate ([3]; 12 h, replicate number 1): 0.82
3 | C[C@@H]1CC[C@@]2(OC1)O[C@H]1[C@@H](O)[C@H]3[C@@H]4CC[C@H]5C[C@@H](O[C@@H]6O[C@H](CO)[C@H](O[C@@H]7O[C@H](CO)C(O)[C@H](O[C@@H]8OC[C@@H](O)[C@H](O)[C@H]8O)[C@H]7O[C@@H]7O[C@H](CO)[C@H](O)[C@H](O[C@@H]8O[C@H](CO)[C@@H](O)[C@H](O)[C@H]8O)[C@H]7O)[C@H](O)[C@H]6O)[C@H](O)C[C@]5(C)[C@H]4CC[C@]3(C)[C@H]1[C@@H]2C (stereo partly specified) [DIGITONIN] | 0.3 | 0.93 | 0.88 | – | 0.68 | 0.85 | 0.67 | 0.96 | 1 | 0.6 | 0.94 | 0.65 | – | 0.68 | – | 0.72 | 0.94 | 0.73 | 0.49 | 0.6 | Growth Rate ([1]; 6 h, replicate number 2): 0.68; Growth Rate ([1]; 12 h, replicate number 2): 0.67; Growth Rate ([1]; 24 h, replicate number 2): 0.85; Growth Rate ([2]; 0 h, replicate number 2): 0.74; Growth Rate ([3]; 0 h, replicate number 1): -0.37
4 | COc1ccc([C@@H]2Sc3ccccc3N(CCN(C)C)C(=O)[C@@H]2OC(C)=O)cc1.Cl [DILTIAZEM HYDROCHLORIDE] | 0.54 | 0.89 | 0.57 | – | – | – | – | – | – | – | 0.11 | 0.55 | – | 0.86 | – | 0.86 | -0.94 | 0.94 | – | 0.94 | Growth Rate ([1]; 12 h, replicate number 1): -0.67; Growth Rate ([1]; 24 h, replicate number 2): 0.87; Growth Rate ([2]; 0 h, replicate number 2): -0.41; Growth Rate ([3]; 0 h, replicate number 1): 0.6
5 | C[S+](C)[O-] [DIMETHYL SULFOXIDE] | – | 0.87 | – | 0.89 | 0.27 | – | 0.44 | – | – | 0.44 | 0.48 | 0.78 | 0.88 | 0.83 | 0.9 | 0.69 | – | – | – | 0.5 | Growth Rate ([1]; 6 h, replicate number 1): 0.99; Growth Rate ([1]; 6 h, replicate number 2): 0.8; Growth Rate ([1]; 12 h, replicate number 2): 0.83; Growth Rate ([2]; 0 h, replicate number 2): 0.1; Growth Rate ([3]; 0 h, replicate number 1): 0.12; Growth Rate ([3]; 0 h, replicate number 2): 0.07; Growth Rate ([3]; 12 h, replicate number 1): 0.83
6 | Cc1ccc(-n2nc(C(C)(C)C)cc2NC(=O)Nc2ccc(OCCN3CCOCC3)c3ccccc23)cc1 [DORAMAPIMOD] | – | – | – | – | – | – | 0.9 | – | – | 0.76 | – | – | 0.87 | – | 0.95 | – | 0.08 | – | -1 | 0.87 | Growth Rate ([3]; 0 h, replicate number 1): -0.47; Growth Rate ([3]; 6 h, replicate number 1): 0.67; Growth Rate ([3]; 12 h, replicate number 1): 0.67
7 | CSc1ccc(C(=O)/C=C/c2cc(C)c(OC(C)(C)C(=O)O)c(C)c2)cc1 [ELAFIBRANOR] | 0.61 | 0.87 | – | 0.88 | 0.45 | 0.63 | 0.69 | 0.88 | 0.92 | 0.76 | 0.6 | 0.79 | – | 0.97 | – | 0.99 | 0.85 | 0.9 | -0.15 | – | Growth Rate ([1]; 6 h, replicate number 2): 0.74; Growth Rate ([1]; 12 h, replicate number 2): 0.59; Growth Rate ([1]; 24 h, replicate number 2): 0.75; Growth Rate ([2]; 0 h, replicate number 2): 0.75; Growth Rate ([3]; 0 h, replicate number 1): 0.18
8 | OC(CN1CCC(Cc2ccc(F)cc2)CC1)c1ccc(Cl)cc1 (stereo unspecified) [ELIPRODIL] | – | – | – | – | – | – | 0.95 | – | – | – | – | – | 0.88 | – | – | – | -0.95 | – | – | – | Growth Rate ([1]; 6 h, replicate number 1): -0.61; Growth Rate ([1]; 6 h, replicate number 2): 0.5; Growth Rate ([1]; 12 h, replicate number 1): -0.13; Growth Rate ([2]; 0 h, replicate number 2): -0.72; Growth Rate ([3]; 0 h, replicate number 2): 0.62; Growth Rate ([3]; 12 h, replicate number 1): 0.57
9 | COc1cc(F)ccc1-c1cc(Nc2cc(CS(C)(=N)=O)ccn2)ncc1F (stereo unspecified) [ENITOCICLIB] | -1 | – | – | – | 0.69 | 0.57 | 0.36 | 0.29 | 0.27 | 0.14 | -0.19 | -0.41 | -0.19 | -0.4 | -0.17 | -0.34 | – | 0.96 | -1 | 0.3 | Growth Rate ([1]; 24 h, replicate number 2): 0.69; Growth Rate ([3]; 0 h, replicate number 1): -1; Growth Rate ([3]; 0 h, replicate number 2): 0.31; Growth Rate ([3]; 6 h, replicate number 1): 0.19; Growth Rate ([3]; 12 h, replicate number 1): -0.15
10 | CN1CCN(c2ccc(C(=O)Nc3n[nH]c4ccc(Cc5cc(F)cc(F)c5)cc34)c(NC3CCOCC3)c2)CC1 [ENTRECTINIB] | -0.42 | -0.92 | -0.82 | -0.92 | -0.57 | -0.62 | -0.45 | -0.64 | -0.66 | -0.6 | -0.99 | -0.8 | -0.67 | -0.58 | -0.54 | -0.42 | – | -0.89 | – | -0.56 | Growth Rate ([1]; 6 h, replicate number 2): -1; Growth Rate ([1]; 12 h, replicate number 2): -0.97; Growth Rate ([1]; 24 h, replicate number 2): -0.77; Growth Rate ([2]; 0 h, replicate number 2): -1; Growth Rate ([3]; 6 h, replicate number 1): -0.98; Growth Rate ([3]; 12 h, replicate number 1): -0.89
11 | CN(C)CCC[C@@]1(c2ccc(F)cc2)OCc2cc(C#N)ccc21 [ESCITALOPRAM] | -1 | 0.69 | 0.84 | 0.62 | – | 1 | – | – | 0.9 | – | – | 0.97 | 0.56 | 0.59 | 0.6 | – | – | 0.85 | 0.18 | – | Growth Rate ([1]; 6 h, replicate number 1): 0.67; Growth Rate ([1]; 24 h, replicate number 2): 0.74; Growth Rate ([3]; 0 h, replicate number 1): -0.16; Growth Rate ([3]; 0 h, replicate number 2): 0.57; Growth Rate ([3]; 12 h, replicate number 1): 0.84
12 | CCOC(=O)c1cncn1[C@H](C)c1ccccc1 [ETOMIDATE] | 0.28 | 0.21 | -0.16 | – | 0.83 | 0.97 | – | 0.9 | 0.98 | – | – | – | – | – | – | – | 0.93 | – | 0.35 | 0.87 | Growth Rate ([2]; 0 h, replicate number 2): -0.28; Growth Rate ([3]; 6 h, replicate number 1): 0.68
13 | C[C@H]1CN(C2COC2)CCN1c1ccc(Nc2cc(-c3ccnc(N4CCn5c(cc6c5CC(C)(C)C6)C4=O)c3CO)cn(C)c2=O)nc1 [FENEBRUTINIB] | -1 | – | – | 0.53 | – | 0.69 | 0.99 | – | 0.81 | 1 | 0.76 | – | – | – | – | – | -0.77 | 0.94 | – | 0.98 | Growth Rate ([1]; 6 h, replicate number 1): 0.44; Growth Rate ([1]; 12 h, replicate number 2): 0.46; Growth Rate ([3]; 6 h, replicate number 1): 0.81
14 | COCCNc1cc(NC(=O)N2CCCc3cc(CN4CCN(C)CC4=O)c(C=O)nc32)ncc1C#N [FGF401] | – | 0.24 | 0.74 | 0.86 | – | 0.86 | – | 0.93 | 0.98 | – | 0.95 | 0.82 | 0.87 | 0.98 | – | – | 0.95 | – | -0.62 | – | Growth Rate ([1]; 6 h, replicate number 1): 0.08; Growth Rate ([1]; 12 h, replicate number 1): -1; Growth Rate ([3]; 0 h, replicate number 2): 0.45; Growth Rate ([3]; 6 h, replicate number 1): 0.68
